According to US20260092179A1, “GENETICALLY MODIFIED HOST CELLS PRODUCING VIOLACEIN, ANALOGUES, AND DERIVATIVES THEREOF” (OCTARINE BIO APS, priority 2022, published 2026):
In brackets after ≈: the same amount, converted by molar mass. One block for each compound: values may come before it.

Key:
[1] = Artificial light stability of dyed fabrics (colour fastness, ΔE); type: physicochemical; settings: for ΔE: before vs after LED lamp, room temperature, 16 h
Experimental: In order to assess the stability and colour fastness of violacein and violacein derivatives dyed onto fabrics, dyed fabrics were subjected to a number of conditions. Fabrics were dyed according to Example 18 and colour coordinates and colour change before and after exposure to a given condition were determined as described in Example 18. To measure temperature stability, fabrics were incubated in an oven set to 80° c. for 4 h. To measure stability under acid and alkaline conditions, fabrics were fully submerged in water solutions set to pH 8 with NaOH and pH 5 with HCl and incubated at room temperature for 30 minutes. Fabrics were then incubated at 37° c. for 4 h. To measure stability during laundering, fabrics were washed at 30° c. under the “mix” setting of a Siemens IQ300 washing machine, then dried in a Siemens IQ300 dryer until dry. To measure artificial light stability, fabrics were placed under an LED lamp at room temperature for 16 h. To measure UV light stability, fabrics were placed under a UV lamp at room temperature for 1 h.

[2] = Free radical scavenging ability of dyed Nylon 6,6 fabric (DPPH); type: biochemical; settings: dyed Nylon 6,6 fabric strip; for OD517: 1 h in the dark in 5×10^−5 M DPPH in 100% ethanol; for Scavenging ability %: 1 h in the dark in 5×10^−5 M DPPH, vs undyed control
Experimental: Violacein is reported as being a potent antioxidant able to effectively scavenge free radicals. […] To test this, 1.5×1.5 cm dyed Nylon 6,6 fabric strips were incubated in the dark at room temperature for 1 h in 5 mL of a 5×10^−5 M DPPH free radical solution in 100% ethanol. Undyed Nylon 6,6 fabric strips were included as a negative control. After 1 h absorbance was measured at 517 nm and % scavenging ability calculated as above.

[3] = Solubility of violacein in 100% methanol (stock solutions); type: physicochemical; settings: organic solvent or mixture, read-out: soluble in 100% methanol
Source text: In Example 7, S. cerevisiae was engineered to produce violacein and 3 other violacein derivatives (deoxyviolacein, proviolacein, and prodeoxyviolacein). However, during cultivation experiments a number of issues were observed. […] On agar plate we also observed a number of colonies losing their colour, indicating rapid selection against the introduced biosynthetic pathway. […] Issues with toxicity, solubility, and product export have significant negative effects on production of these compounds and limit the commercial viability. To overcome these issues, we investigated whether glycosylation of the compounds could provide a positive impact and improve production. Because violacein and violacein derivatives are not naturally glycosylated, we first sought to identify heterologous glycosyltransferase enzymes displaying promiscuous activity towards these compounds by running a series of in vitro glycosyltransferase enzyme assays using violacein and violacein derivatives as substrate

[4] = Acrylic, after test (LED lamp, room temperature, 16 h)
[5] = Bleached cotton, after test (LED lamp, room temperature, 16 h)
[6] = Diacetate, after test (LED lamp, room temperature, 16 h)
[7] = Nylon 6,6, after test (LED lamp, room temperature, 16 h)
[8] = Polyester, after test (LED lamp, room temperature, 16 h)
[9] = Wool, after test (LED lamp, room temperature, 16 h)

L [1, 4]: 64.84
a [1, 4]: 0.76
b [1, 4]: 2.12
L ([1]; Acrylic, before test): 60.52
a ([1]; Acrylic, before test): 1.59
b ([1]; Acrylic, before test): −2.77
ΔE ([1]; Acrylic): 6.58
L [1, 5]: 62.47
a [1, 5]: 2
b [1, 5]: −6.81
L ([1]; Bleached cotton, before test): 60.49
a ([1]; Bleached cotton, before test): 0.97
b ([1]; Bleached cotton, before test): −7.49
ΔE ([1]; Bleached cotton): 2.33
L [1, 6]: 49.82
a [1, 6]: 9.13
b [1, 6]: −9.9
L ([1]; Diacetate, before test): 47.05
a ([1]; Diacetate, before test): 13.99
b ([1]; Diacetate, before test): −17.37
ΔE ([1]; Diacetate): 9.33
L [1, 7]: 46.23
a [1, 7]: 5.57
b [1, 7]: −18.4
L ([1]; Nylon 6,6, before test): 43.65
a ([1]; Nylon 6,6, before test): 5.57
b ([1]; Nylon 6,6, before test): −20.95
ΔE ([1]; Nylon 6,6): 3.63
L [1, 8]: 70.32
a [1, 8]: 0.28
b [1, 8]: 2.09
L ([1]; Polyester, before test): 64.39
a ([1]; Polyester, before test): 1.76
b ([1]; Polyester, before test): −4.83
ΔE ([1]; Polyester): 9.23
L [1, 9]: 69.63
a [1, 9]: 0.44
b [1, 9]: 3.2
L ([1]; Wool, before test): 64.28
a ([1]; Wool, before test): −0.4
b ([1]; Wool, before test): −0.37
ΔE ([1]; Wool): 6.49
SMILES: O=C1NC(c2c[nH]c3ccccc23)=C/C1=C1\C(=O)Nc2ccccc21 [deoxyviolacein]
OD517 [2]: 1.43
Scavenging ability % [2]: 37.05%

solubility [3]: 5 mM (≈ 1720 µg/mL)
L [1, 4]: 69.82
a [1, 4]: 3.01
b [1, 4]: 3.46
L ([1]; Acrylic, before test): 65.94
a ([1]; Acrylic, before test): 3.06
b ([1]; Acrylic, before test): 1.37
ΔE ([1]; Acrylic): 4.41
L [1, 5]: 62.61
a [1, 5]: 4.18
b [1, 5]: −6.26
L ([1]; Bleached cotton, before test): 60.03
a ([1]; Bleached cotton, before test): 2.81
b ([1]; Bleached cotton, before test): −7.43
ΔE ([1]; Bleached cotton): 3.15
L [1, 6]: 52.2
a [1, 6]: 6.06
b [1, 6]: 1.03
L ([1]; Diacetate, before test): 43.88
a ([1]; Diacetate, before test): 8.03
b ([1]; Diacetate, before test): 13.02
ΔE ([1]; Diacetate): 14.73
L [1, 7]: 34.82
a [1, 7]: 4.72
b [1, 7]: −17.83
L ([1]; Nylon 6,6, before test): 38.2
a ([1]; Nylon 6,6, before test): 11.52
b ([1]; Nylon 6,6, before test): −16.9
ΔE ([1]; Nylon 6,6): 7.65
L [1, 8]: 73.11
a [1, 8]: 2.28
b [1, 8]: 1.66
L ([1]; Polyester, before test): 68.58
a ([1]; Polyester, before test): 3.06
b ([1]; Polyester, before test): −1.75
ΔE ([1]; Polyester): 5.72
L [1, 9]: 71.32
a [1, 9]: 1.18
b [1, 9]: 3.25
L ([1]; Wool, before test): 67.82
a ([1]; Wool, before test): 1.06
b ([1]; Wool, before test): 0.85
ΔE ([1]; Wool): 4.25
SMILES: O=C1NC(c2c[nH]c3ccc(O)cc23)=C/C1=C1\C(=O)Nc2ccccc21 [violacein]
OD517 [2]: 1.64
Scavenging ability % [2]: 27.53%

SMILES: O=C1N=C(c2c[nH]c3ccc(O)cc23)C=C1c1c[nH]c2ccccc12 [proviolacein]
L [1, 4]: 58.47
a [1, 4]: −0.05
b [1, 4]: 2.76
L ([1]; Acrylic, before test): 56.17
a ([1]; Acrylic, before test): −0.68
b ([1]; Acrylic, before test): 3.21
ΔE ([1]; Acrylic): 2.43
L [1, 5]: 62.69
a [1, 5]: 3.04
b [1, 5]: 3.55
L ([1]; Bleached cotton, before test): 58.83
a ([1]; Bleached cotton, before test): −0.52
b ([1]; Bleached cotton, before test): 4.04
ΔE ([1]; Bleached cotton): 5.27
L [1, 6]: 63.43
a [1, 6]: 4.56
b [1, 6]: 7.02
L ([1]; Diacetate, before test): 56.45
a ([1]; Diacetate, before test): 3.46
b ([1]; Diacetate, before test): 5.75
ΔE ([1]; Diacetate): 7.18
L [1, 7]: 51.07
a [1, 7]: −0.68
b [1, 7]: −2.49
L ([1]; Nylon 6,6, before test): 47.03
a ([1]; Nylon 6,6, before test): −1.98
b ([1]; Nylon 6,6, before test): −2.52
ΔE ([1]; Nylon 6,6): 4.24
L [1, 8]: 65.01
a [1, 8]: −0.35
b [1, 8]: 1.74
L ([1]; Polyester, before test): 59.49
a ([1]; Polyester, before test): −1.38
b ([1]; Polyester, before test): 2.13
ΔE ([1]; Polyester): 5.63
L [1, 9]: 67.51
a [1, 9]: −0.15
b [1, 9]: 6.46
L ([1]; Wool, before test): 65.25
a ([1]; Wool, before test): −0.55
b ([1]; Wool, before test): 5.71
ΔE ([1]; Wool): 2.41
OD517 [2]: 1.88
Scavenging ability % [2]: 17.27%
